# Test results: patent US20150290418A1, “TREATMENT OF RESPIRATORY CONDITION USING TARGETED DELIVERY” (Beth Israel Deaconess Medical Center, Inc., priority 2013, published 2015)
# Legend:
# Assay type in all cases: in vivo
# airways [1] = test: Bronchodilation with targeted versus continuous delivery mode of volatile anesthetics (FIG. 8); conditions: targeted vs continuous delivery
# Source text: The various delivery modes are at least targeted mode and continuous mode. […] Using the systems and methods described here, volatile anesthetics can be selectively delivered for a specified interval during inspiration.
# airways [2] = test: Lung measurements for targeted isoflurane delivery during phases of treatment (FIG. 7); conditions: following targeted therapy with isoflurane
# Source text: Severe sustained bronchospasm may be established using continuous i.v. infusion of methacholine. Using the anesthetic ventilator system, a user has the ability to control the timing, peak concentration, and duration of inhaled isoflurane delivery for various ranges of conventional ventilator rates and tidal volumes typical of ICU patients. In one embodiment, the solenoid valves (shown in FIG. 1) can be programmed to deliver isoflurane during the last 180 cc of the delivered inspired volume. Furthermore, none of the inhaled isoflurane delivered during the last portion of the inspiratory period reaches the alveolar compartment to reduce the risk of side effects and systemic absorption.
# FIG. 7 are exemplary graphs 700 illustrating various lung measurements for targeted isoflurane delivery measured during various phases of treatment, according to an example embodiment. As shown in graphs 700, various lung measurements, including lung resistance (RL), lung elastance (EL), and dead space (VD), are measured as described above. […] The estimates of lung resistance and lung elastance may be obtained via multiple linear regression on measured flow and transplumonary pressure waveforms. Anatomic dead space may be estimated using breath-by-breath volume capnography. Capnography is the monitoring of the concentration or partial pressure of carbon dioxide in the respiratory gases. These measurements may be acquired at least under baseline conditions, during bronchoconstriction, after 10-20 minutes of volatile anesthetic treatment, and after maximal bronochodilation with i.v. atrophine. Airway constriction results in increased airway resistance and stiffening of the lung parenchyma, which is often measured with lung resistance and lung elastance. Measuring these parameters help in determining the effectiveness of the targeted delivery treatment.
# [3] = Isoflurane traces during targeted and continuous delivery modes (FIG. 9); conditions: two breaths
# Source text: FIG. 9 are exemplary graphs 900 illustrating isoflurane traces during various delivery modes in relation to the delivered tidal volume for two breaths, according to an example embodiment. As shown in graphs 900, the solid line represents the amount of isoflurane in the lungs and the dotted line represents the tidal volume (Vt) over time.
# respiratory system = test: Respiratory impedance spectrum (resistance and elastance) during MCh doses and after intravenous atropine
# Protocol: By combining specific frequencies such that there is physiologic tidal excursion, in an example embodiment, the EVW is able to maintain gas exchange during conventional ventilation while providing continuous assessment of Z. The EVW differs from other oscillatory waveforms in that it has been modified to allow passive expiration, so Z is calculated from the inspiratory portion of the breath only.
# The mechanical impedance spectrum of the lungs or total respiratory system can be very sensitive indicators of bronchoconstriction and response to therapy. Although mathematically Z is a complex number with real and imaginary parts, it can be expressed in terms of effective frequency dependent resistance and elastance. Measurements can be obtained before and 5 minutes following a deep inspiration (DI) to 35 cm H2O, as well as after administration of intravenous atropine. Under pre and post-DI conditions, both respiratory resistance (Rrs) and elastance (Ers) increased at each frequency with increases in MCh dose. At the lowest frequencies, Rrs increased ˜50% during the highest dose of MCh compared with baseline due to increases in both airway and tissue resistances. The Ers increased by ˜65% as the parenchyma stiffens due to airway-tissue interdependence. […] Thus, the impedance spectra reveal subtleties of airway mechanics and response to therapy not evident from simple Rrs and Ers estimates measured at a single breathing frequency. Coupling these types of data to distributed models of airway and tissue mechanics then allows estimates of the heterogeneity of airway or tissue changes in addition to the overall lung properties.
# [4] = following intravenous atropine, MCh 200 μg/min
# [5] = following intravenous atropine, any frequency
smiles,measurement,setting,value
FC(F)OC(Cl)C(F)(F)F (stereo not shown) [isoflurane],"bronchodilation, targeted delivery mode compared with continuous delivery mode",airways [1],slightly higher
same,lung elastance (EL),airways [2],decreasing trend
same,lung resistance (RL),airways [2],decreasing trend
same,estimation of dead space (VD),airways [2]; evidence of bronchodilation,increasing
same,"levels of isoflurane agent in the lungs, targeted compared with continuous delivery method",[3]; over time,lower for most of the time
same,"peak level of isoflurane, targeted compared with continuous delivery method",[3],comparable
CN1[C@@H]2CC[C@H]1C[C@@H](OC(=O)C(CO)c1ccccc1)C2 (stereo partly shown) [atropine],Ers compared with value at the highest MCh dose,respiratory system; [4],decrease
same,Rrs compared with value at the highest MCh dose,respiratory system; [4],decrease
same,Ers compared with baseline value,respiratory system; [5],no significant difference
same,Rrs compared with baseline value,respiratory system; [5],no significant difference
"CC(=O)OC(C)C[N+](C)(C)C (stereo not shown) [MCh, methacholine]",increase in respiratory elastance (Ers),respiratory system; highest dose of MCh,~65%
same,increase in respiratory resistance (Rrs) compared with baseline,"respiratory system; lowest frequencies, highest dose of MCh (200 μg/min)",~50%
FCOC(C(F)(F)F)C(F)(F)F [sevoflurane],"bronchodilation, targeted delivery mode compared with continuous delivery mode",airways [1],slightly higher
